Source: patent publication US20230106032A1, “IMIDAZOTRIAZINES ACTING ON CANCER VIA INHIBITION OF CDK12” (Bayer Aktiengesellschaft, priority 2020, published 2023)

What was measured:
CDK12/CycK = target: T1, CDK12/CycK (Homo sapiens, UniProt Q9NYV4); assay: CDK12/CycK high ATP kinase assay (TR-FRET, 2 mM ATP); assay type: biochemical; conditions: read-out: CDK12/CyclinK, 2 mM ATP (high ATP), IC50-[mol/l] (median)
T1 construct: His-CDK12 (aa Q696-S1082); made in house; host or cells: Hi-5 insect cells (baculovirus co-infection with CAK1)
T1 sequence (Q9NYV4 with tags, fused parts or gaps): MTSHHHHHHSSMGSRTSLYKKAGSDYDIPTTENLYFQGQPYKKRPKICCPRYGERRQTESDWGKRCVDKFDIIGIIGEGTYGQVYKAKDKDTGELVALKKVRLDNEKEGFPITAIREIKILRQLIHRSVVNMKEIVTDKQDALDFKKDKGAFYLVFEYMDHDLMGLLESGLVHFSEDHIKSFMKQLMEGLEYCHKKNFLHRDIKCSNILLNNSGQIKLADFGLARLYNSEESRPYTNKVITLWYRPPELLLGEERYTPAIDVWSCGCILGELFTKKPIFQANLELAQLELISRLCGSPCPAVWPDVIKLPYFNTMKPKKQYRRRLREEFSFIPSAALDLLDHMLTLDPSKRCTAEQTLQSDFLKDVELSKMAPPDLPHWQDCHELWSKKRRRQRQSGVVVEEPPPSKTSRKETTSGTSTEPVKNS
T1 sequence (O75909 with tags, fused parts or gaps partner limits assumed): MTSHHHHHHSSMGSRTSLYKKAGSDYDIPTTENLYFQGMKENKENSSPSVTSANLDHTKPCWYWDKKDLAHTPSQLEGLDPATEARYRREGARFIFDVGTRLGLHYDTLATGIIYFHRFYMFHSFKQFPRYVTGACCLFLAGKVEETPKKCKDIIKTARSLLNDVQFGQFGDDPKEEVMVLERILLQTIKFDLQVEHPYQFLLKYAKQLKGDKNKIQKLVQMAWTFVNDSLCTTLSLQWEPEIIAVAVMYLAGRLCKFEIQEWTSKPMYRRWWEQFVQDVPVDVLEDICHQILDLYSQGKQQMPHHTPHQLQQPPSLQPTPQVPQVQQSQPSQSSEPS
Source text: In the context of the present invention, the term “IC50 CDK12 hATP” refers to the IC50 values obtained according to the assay described in this section (2.2) herein below, i.e. the IC50 values for the inhibition of CDK12 at high ATP.
CDK12/CycK-inhibitory activity of compounds of the present invention at 2 millimol/L adenosine-tri-phosphate (ATP) was quantified employing the TR-FRET (TR-FRET=Time Resolved Fluorescence Energy Transfer) based CDK12/CycK activity inhibition assay as described in the following paragraphs.
A complex of human recombinant CDK12 and human recombinant CycK (both N-terminally His-tagged, expression and purification as described above) was used as enzyme. As substrate for the kinase reaction biotinylated peptide biotin-Ahx-KFELLPTPPLSPSRRSGL (C-terminus in amid form) was used which can be purchased e.g. form the company Biosyntan (Berlin-Buch, Germany).
For the assay 50 nanoL of a 100 fold concentrated solution of the test compound in DMSO was pipetted into either a black low volume 384 well microtiter plate or a black 1536 well microtiter plate (both Greiner Bio-One, Frickenhausen, Germany), 2 microL of a solution of CDK12/CycK in aqueous assay buffer [25 millimol/L HEPES pH 7.5, 20 millimol/L MgCl2, 5 millimol/L ß-glycerophosphate, 2 millimol/L EGTA, 1.0 millimol/L dithiothreitol, 0.01% (v/v) Nonidet-P40 (Sigma), 0.01% (w/v) bovine serum albumin] were added and the mixture was incubated for 15 min at 22° C. to allow pre-binding of the test compounds to the enzyme before the start of the kinase reaction. Then the kinase reaction was started by the addition of 3 microL of a solution ATP (3.33 millimol/L=> final conc. in the 5 microL assay volume is 2 millimol/L) and substrate (1.67 micromol/L=> final conc. in the 5 microL assay volume is 1 micromol/L) in assay buffer and the resulting mixture was incubated for a reaction time of 60 min at 22° C. The concentration of CDK12/CycK was adjusted depending of the activity of the enzyme lot and was chosen appropriate to have the assay in the linear range, typical concentrations were about 0.75 nanomol/L. The reaction was stopped by the addition of 3 microL of a solution of TR-FRET detection reagents (125 nanomol/L streptavidine-XL665 [Cisbio Bioassays, Codolet, France] and 0.67 nanomol/L anti-Phospho-c-Myc (Ser 62) (E1J4K)-antibody from Cell Signalling [#13748] and 2 nanomol/L LANCE EU-W1024 labeled anti-rabbit IgG antibody [Perkin-Elmer, product no. 0083]) in an aqueous EDTA-solution (133 millimol/L EDTA, 0.27% (w/v) bovine serum albumin in 66.7 millimol/L HEPES pH 7.5).
The resulting mixture was incubated 1 h at 22° C. to allow the formation of complex between the phosphorylated biotinylated peptide and the detection reagents. Subsequently the amount of phosphorylated substrate was evaluated by measurement of the resonance energy transfer from the Eu-chelate to the streptavidine-XL. Therefore, the fluorescence emissions at 620 nm and 665 nm after excitation at 350 nm was measured in a TR-FRET reader, e.g. a Pherastar FS (BMG Labtechnologies, Offenburg, Germany) or a Viewlux (Perkin-Elmer). The ratio of the emissions at 665 nm and at […] was taken as the measure for the amount of phosphorylated substrate. The data were normalised (enzyme reaction without inhibitor=0% inhibition, all other assay components but no enzyme=100% inhibition).

CYCLIN K = CYCLIN K nuclear protein level: immunofluorescence/high content analysis in CAL-120 cells; assay type: cell-based, human; conditions: 24 h, nuclear CCNK staining, read-out: CYCLIN K degradation IF, DC50-[mol/l] (median)
Procedure: In the context of the present invention, the term “DC50 Cyclin K” refers to the DC50 values obtained according to the assay described in this section (7) herein below, i.e. the DC50 values for the degradation of Cyclin K.
CAL-120 human breast cancer cells (DSMZ ACC 459) are seeded in 1536-well microtiter plates (800 cells per well) containing 50 nanoL of compounds in Dose-Response. Control wells received DMSO or Reference Example 1. Plates are then incubated for 24 h at 37° C. in an humidified incubator and fixed with 4% PFA for 10 min. Then immunofluorescence (IF) against CYCLIN K (ThermoFisher Scientific CCNK Antibody #PA5-85020, rabbit, 1:200 dilution) is performed using standard IF protocols. Cells are then stained with Hoechst 33342 (Life Technologies, H-1399, 0.1 microg/ml) and imaged on an automated confocal microscopy system (e.g. Perkin Elmer Opera Phenix). Nuclear and cytoplasmic intensity as well as the nuclear/cytoplasmic intensity ratio is determined by automated image analysis using custom generated scripts (MetaXpress). Data is then transferred to Genedata Screener software, normalized to DMSO and control and DC50 values (degrading concentration to achieve 50% reduction of nuclear CCNK staining intensity relative to controls) are reported.

Row | IC50 (CDK12/CycK) [nM] | DC50 (CYCLIN K) [nM] | SMILES
1 | 16500 | 0.227 | CN1CCN(c2nc(NCc3nc4cc(F)ccc4[nH]3)c3ncc(Br)n3n2)CC1 [Example 21, 7-bromo-N-[(5-fluoro-1H-benzimidazol-2-yl)methyl]-2-(4-methylpiperazin-1-yl)imidazo[2,1-f][1,2,4]triazin-4-amine]
2 | 2560 | 0.589 | Fc1cccc2[nH]c(CNc3nc(N4CCNCC4)nn4c(Br)cnc34)nc12 [Example 22, 7-bromo-N-[(4-fluoro-1H-benzimidazol-2-yl)methyl]-2-(piperazin-1-yl)imidazo[2,1-f][1,2,4]triazin-4-amine]
3 | 10800 | 0.863 | CN1CCN(c2nc(NCc3nc4c(F)cccc4[nH]3)c3ncc(Br)n3n2)CC1 [Example 23, 7-bromo-N-[(4-fluoro-1H-benzimidazol-2-yl)methyl]-2-(4-methylpiperazin-1-yl)imidazo[2,1-f][1,2,4]triazin-4-amine]
4 | 737 | 0.0613 | C[C@@H]1CN(c2nc(NCc3nc4ccccc4[nH]3)c3ncc(C(F)(F)F)n3n2)C[C@H](C)N1.O=CO [Example 24, N-[(1H-benzimidazol-2-yl)methyl]-2-[rel-(3R,5S)-3,5-dimethylpiperazin-1-yl]-7-(trifluoromethyl)imidazo[2,1-f][1,2,4]triazin-4-amine Formate (1/1)]
5 | 10800 | 1.66 | CN1CCN(c2nc(NCc3nc4ccccc4[nH]3)c3ncc(C(F)(F)F)n3n2)CC1 [Example 25, N-[(1H-benzimidazol-2-yl)methyl]-2-(4-methylpiperazin-1-yl)-7-(trifluoromethyl)imidazo[2,1-f][1,2,4]triazin-4-amine]
6 | 172 | 0.552 | FC(F)(F)c1cnc2c(NCc3nc4ccccc4[nH]3)nc(N3CCOCC3)nn12 [Example 26, N-[(1H-benzimidazol-2-yl)methyl]-2-(morpholin-4-yl)-7-(trifluoromethyl)imidazo[2,1-f][1,2,4]triazin-4-amine]
7 | 10.7 | 3.45 | Fc1ccc2[nH]c(CNc3nc(N4CCOCC4)nn4c(C(F)(F)F)cnc34)nc2c1F [Example 27, N-[(4,5-difluoro-1H-benzimidazol-2-yl)methyl]-2-(morpholin-4-yl)-7-(trifluoromethyl)imidazo[2,1-f][1,2,4]triazin-4-amine]
8 | 1680 | 0.363 | CN1CCN(c2nc(NCc3nc4c(F)c(F)ccc4[nH]3)c3ncc(C(F)(F)F)n3n2)CC1 [Example 28, N-[(4,5-difluoro-1H-benzimidazol-2-yl)methyl]-2-(4-methylpiperazin-1-yl)-7-(trifluoromethyl)imidazo[2,1-f][1,2,4]triazin-4-amine]
9 | 40.5 | 0.267 | C[C@@H]1CN(c2nc(NCc3nc4c(F)c(F)ccc4[nH]3)c3ncc(C(F)(F)F)n3n2)C[C@H](C)N1 [Example 29, N-[(4,5-difluoro-1H-benzimidazol-2-yl)methyl]-2-[rel-(3R,5S)-3,5-dimethylpiperazin-1-yl]-7-(trifluoromethyl)imidazo[2,1-f][1,2,4]triazin-4-amine]
